In US6893829B2, “Human leukocyte 12-lipoxygenase and its role in the pathogenesis of disease states” (City of Hope, priority 1992, dated 2005):

Experiments:
[1] = system: 12-HETE in L6 muscle cells; assay: 12-HETE in L6 muscle cells; assay type: cell-based, rat; settings: xylose 5.5 mM, n = 2
Protocol: 6. […] L6 muscle cells are skeletal muscle cells from rats which have been used to investigate the mechanisms of insulin action. When L6 muscle cells are incubated in xylose (5.5, mM), they are much more responsive to insulin when compared to cells in regular glucose (5.5 mM) or high glucose (25 mM). […] Thus, elevated 12-Lipoxygenase products, such as 12-HETE, appear to play an important role in reduced insulin metabolic actions caused by high glucose.

[2] = system: 12-LO activity in HSMC; assay: 12-HETE release and cell-associated 12-HETE in HSMC (HPLC/RIA); assay type: cell-based, human; settings: baicalein 10^−5 mol/L, data not shown
Protocol: FIG. 3A illustrates the effect of AII on 12-HETE release by HSMC. HSMC were grown to confluency. Serum was removed and cells were incubated in media 199 containing 0.4% fetal bovine serum (FBS) and 0.2% BSA for 18 hours. Cells were then washed with DME media and incubated for 20 minutes in DME media containing 0.2% BSA. AII was added to the cells for five and ten minutes at the concentrations of 10^−9 and 10^−8 mol/L. Media were collected for HETE assay. • *p<0.05 vs control n=4
FIG. 3B illustrates the effect of AII on cell-associated 12-HETE levels in HSMC. After collecting supernatants, cells were washed with ice-cold PBS and harvested by scraping for the assay of cell-associated HETEs. • *p<0.02 vs control n=4
HSMC and HAEC monolayers were washed twice with ice-cold PBS and then processed for RNA extraction or western analysis as described below. For hydroxyeicosatetraenoic acid (HETE) assay, approximately 24 hours prior to an experiment, the medium was replaced with medium 199 containing 0.4% FBS and 0.2% BSA.
These assays were performed using previously published methods (10,11). Briefly, 12- and 15-HETE are extracted from supernatants and cells on C18 mini columns (Analytichem International, CA) and measured using our validated reverse phase gradient HPLC and (RIA) methods.
Another major aspect of this invention is the discovery that AII increases the activity and expression of 12-LO mRNA and protein in HSMC.

[3] = system: MAP kinase activity; assay: AII- and 12-HETE-induced mitogenic (MAP kinase) activities with 12-LO inhibitors; assay type: cell-based, Chinese hamster
Protocol: It has been discovered that the administration of AII results in biphasic activation of MAP kinase (all of the MAP kinase experiments were conducted in CHO-AT1a cells—AII receptor AT1a cDNA transfected Chinese hamster ovary cells). […] Thus, the administration of a 12-LO inhibitor decreases AII- and/or 12-HETE-induced MAP kinase activity, thereby decreasing the effects which AII and/or 12-HETE have on cell growth and development.

[4] = system: MCF-7 cells; assay: Proliferation of MCF-7 cells; assay type: cell-based, human; settings: baicalein 10 μM, CDC 10^−5M, NDGA 30 μM, ibuprofen 10^−5M
[5] = system: beta sub-unit of the human insulin receptor; assay: Insulin receptor phosphorylation in rat-1-fibroblasts containing the human insulin receptor; assay type: cell-based; settings: baicalein 10^−6M, last 24 hours
Protocol: 7. Baicalein, a selective 12-LO inhibitor, can prevent glucose-induced insulin resistance. To perform these studies, applicants cultured rat-1-fibroblasts that have been engineered to contain the human insulin receptor for ten days in high glucose (25 mM). For the last 24 hours, the cells were cultured with 10^−6M baicalein. The marked bands represent the phosphorylated beta sub-unit of the human insulin receptor (FIG. 23). As the band becomes lighter, it represents reduced insulin action. Lane 1 represents the insulin receptor phosphorylation in normal glucose (5.5 mM) vs the reduced insulin action in lane 5 (25 mM glucose).

[6] = system: 12-LO in RINm5F cells; assay: 12-LO protein, mRNA and activity in RINm5F cells; assay type: cell-based, rat
Protocol: FIG. 12 illustrates a western immunoblot of proteins isolated from the insulin producing rat beta cell line, RINm5F showing the effect of interleukin-1β on 12-LO protein expression. In these studies, 25 μg of protein was isolated from the cells grown for 16 hours in reduced serum-containing medium 0.4% alone or along with IL-1β (0.1 ng/ml).
(§1) Applicants have discovered that direct addition of the 12-LO products 12-S-HETE or 12-HPETE directly decreases cellular growth as reflected by decreased ^3H thymidine incorporation or DNA synthesis in the rat pure beta cell line RIN-M5F.
(§2) It has been discovered that IL-1β induces 12-LO protein and mRNA expression in RIN-M5F cells and 12-LO mRNA expression in rat islets.

[7] = system: 12-LO in rat pancreatic islets; assay: 12-HETE production and 12-LO mRNA in rat pancreatic islets; assay type: cell-based
Description: as §1, §2

[8] = system: leukocyte-type 12-LO in PVSMC; assay: 12-LO activity, mRNA and protein in PVSMC; assay type: cell-based, porcine; settings: 24 hours; for increase in 12-HETE HPLC peak (12-LO enzyme activity): 2.5 ng/ml; for 12-LO mRNA expression in PVSMC: FIG. 14
Protocol: FIG. 14A illustrates the dose-dependent effect of the cytokine interleukin-1β on 12-LO mRNA expression in porcine aortic smooth muscle cells (PVSMC). Confluent PVSMC growth in normal glucose medium was serum depleted for 24 hours by placing in medium+0.2% BSA+0.4% FCS. This medium was then freshly replaced along with IL-1β and the cells incubated for a further 24 hours. At the end of the incubation, total RNA was extracted from the cells using RNA-STAT. This RNA was the subjected to reverse-transcriptase polymerase chain reaction (RT-PCR) to detect and quantitate leukocyte-type 12-LO mRNA (333 bp PCR product, upper panel) using our well established techniques. The expression of GAPDH mRNA 284 bp, lower panel) was used as an internal control for PCR and for quantitation.
FIG. 14B illustrates the effect of the cytokine IL-4 on 12-LO mRNA expression in PVSMC. The ells were treated for 24 hours with IL-4 and 12-LO mRNA quantitated as described in the legend to FIG. 14A. It is clearly seen that IL-4 also increases 12-LO mRNA expression similar to IL-1β.
FIG. 14C illustrates the effect of the cytokine IL-8 on 12-LO mRNA expression in PVSMC. The cells were treated for 24 hours with IL-8 and 12-LO mRNA quantitated as described under legend 14A.
(§3) The cells were cultured in DME (normal glucose) and treated for 24 hours±cytokines in medium containing 0.2% BSA and 0.4% serum. Intracellular 12-LO enzyme activity was measured by HPLC, leukocyte-type 12-LO protein expression by immunoblotting and 12-LO mRNA by a specific reverse transcriptase polymerase chain reaction (RT-PCR). […] Treatment with these cytokines (0.5-5 ng/ml) also led to an increase (1.4-2.5-fold) in 12-LO protein expression 72 kD). In addition, all three cytokines (2.5 ng/ml) could induce a significant increase in PVSMC DNA synthesis (1.280.08, 1.67±0.11 and 1.3±0.07 fold increase in ^3H thymidine incorporation with IL-1, -4, and -8 respectively, p<0.01).

[9] = system: PVSMC; assay: PVSMC DNA synthesis (3H thymidine incorporation); assay type: cell-based, porcine; settings: 2.5 ng/ml
Protocol: as §3

[10] = system: VEGF protein in MCF-7 cells; assay: VEGF protein expression in breast cancer cells (immunoblot); assay type: cell-based, human; settings: MCF-7, 24 hours
Protocol: FIG. 8 illustrates the dose-dependent effect of platelet-derived growth factor (PDGF) on vascular endothelial growth factor (VEGF) protein (42 kD) expression in MCF-7 breast cancer cells. Nearly confluent MCF-7 cells were serum starved for 24 hours by placing in DME medium+0.4% FCS and 0.2% BSA. This medium was then freshly replaced and the cells incubated for another 24 hours with PDGF. At the end of the incubation, the cell monolayers were washed with ice-cold PBS, scraped into PBS and pelleted by centrifugation. The cell pellets were then lysed and equal amounts of protein (50 μg) subjected to electrophoresis and immunoblotting to detect VEGF using a specific antibody from Santa Cruz Biotechnology. Detection was by a chemiluminiscent technique.
FIG. 9 illustrates the effect of epidermal growth factor (EGF) and the 12-lipoxygenase product 12-HETE on VEGF protein expression in the MCF-7 breast cancer cell line MCF-7. MCF-7 cells were treated with EGF and 12-HETE for 24 hours and VEGF protein identified as described in the legend to FIG. 8.

[11] = Calcium gluconate infusion: urinary PGI2 and 12-HETE; assay type: in vivo, human
Description: Vascular tissue from diabetic animals and man metabolize arachidonic acid differently from normals. PGI2 is a vasodilator, antithrombolic, and renin secretagogue while 12-hydroxyeicosatetraenoic acid (12-HETE) is proinflammatory and inhibits cyclooxygenase (CO). Applicants earlier reported a prostacyclin (PGI2) deficiency in diabetics with hyporeinemic hypoaldosteronism (HH) (46). Applicants explored the production of the CO product, PGI2 and the lipoxygenase (LO) product, 12-HETE in NIDDM patients with normal renal function (NR), those with microalbuminuria (MiA0, macroabluminuria (MaA) and HH patients. PGI2 (6 keto PGF^1) and 12-HETE were measured in urine by HPLC followed by RIA using published methods. Results are:
Low dose calcium infusions have been previously shown to increase PGI2, probably via activation of tissue phospholipases. […] This supports the concept that a defect in prostacyclin formation exists in NIDDM.

[12] = NIDDM patients with microalbuminuria
[13] = normal subjects, three hour infusion

Q: Which results are given for `O=C[C@H](O)[C@@H](O)[C@H](O)CO` [Xylose, xylose]?
A: 12-HETE in the cells [1]: 398 pg/total cells; 12-HETE release in the media [1]: 53.2 pg/mL

Q: With `O=c1cc(-c2ccccc2)oc2cc(O)c(O)c(O)c12` [baicalein] as the compound, how does the “12-HETE levels in response to AII” value [2] read?
A: Its value is “could be reduced”.

Q: And the “AII- and 12-HETE-induced mitogenic activities” value [3]?
A: The value was “dose-dependently reduce”.

Q: And the “proliferation of MCF-7 cells” value [4]?
A: The value was “significantly inhibited”.

Q: And the “insulin receptor phosphorylation in 25 mM glucose” value [5]?
A: Its value is “restoration of insulin receptor phosphorylation”.

Q: With `CC(C)Cc1ccc(C(C)C(=O)O)cc1` (centres unmarked) [ibuprofen] as the compound, how does the “proliferation of MCF-7 cells” value [4] read?
A: Its value is “not”.

Q: With IL-1β: cytokine interleukin-1β as the compound, how does the “increase in 12-LO protein expression” value ([6]; IL-1β 0.1 ng/ml, 16 hours) read?
A: Its value is 2 fold.

Q: And the “12-LO pathway activity (radioimmunoassay for 12-HETE)” value ([6]; RIN-M5F)?
A: The value was “increased 12-LO pathway activity”.

Q: And the “12-LO mRNA expression (competitive PCR)” value ([6]; RIN-M5F, 16 hours)?
A: Its value is “concomitant increase”.

Q: What about the “increase in leukocyte 12-LO protein expression” value ([6]; human IL-1B at 0.2 ng) of the same compound?
A: The value was “approximately two”.

Q: And the “12-LO mRNA and enzyme activity in purified Sprague-Dawley rat islets” value [7]?
A: The value was “increased expression of 12-LO mRNA and enzyme activity”.

Q: And the “immunoreactive release of 12-S-HETE” value ([7]; IL-1B 2.5 ng/ml, basal 92)?
A: Its value is 250 pg/ml/40 islets.

Q: What about the “increase in 12-HETE HPLC peak (12-LO enzyme activity)” value [8] of the same compound?
A: Its value is 51%.

Q: What about the “12-LO mRNA expression in PVSMC” value [8] of the same compound?
A: Its value is “dose-dependent increase”.

Q: Which results are given for IL-4: cytokine IL-4?
A: increase in 12-HETE HPLC peak (12-LO enzyme activity) [8]: 43%; 12-LO mRNA expression in PVSMC [8]: increases; increase in 3H thymidine incorporation [9]: 1.67±0.11 fold

Q: Which VEGF protein expression [10] does the source give for PDGF here?
A: Its VEGF protein expression is “dose-dependent increase”.

Q: Which 12-HETE [11, 12] does the source give for calcium gluconate here?
A: Its 12-HETE is “further stimulation”.

Q: And the PGI2 [11, 12]?
A: Its PGI2 is “no increase”.

Q: What about the 12-HETE [11, 13] of the same compound?
A: Its 12-HETE is “highly significant increase”.

Q: What about the PGI2 [11, 13] of the same compound?
A: The PGI2 was “highly significant increase”.
